Data taken from patent US10053416B1, “Process for producing long chain amino acids and dibasic acids” (VITAWORKS IP, LLC, priority 2017, dated 2018).
Counter-ions that a name gives are not always drawn.

Key:
[1] = Solubility curve in 5% aqueous solution of ammonium hydroxide (FIG. 4); assay type: physicochemical; conditions: as a function of temperature (FIG. 4)
Text: FIG. 4. Solubility curve of 11-aminoundecanoic acid and dodecanedioic acid in 5% aqueous solution of ammonium hydroxide.
In one embodiment of the present invention, schematically illustrated in FIG. 1, the solution or suspension is further cooled to crystallize the long chain amino acid, which can be recovered by means of solid-liquid separation to provide a mother liquor containing the ammonium or alkylamine salts of long chain dibasic acid and alkanoic acid. […] The three components in the mother liquor, i.e., alkylamine, dodecanedioic acid, and alkanoic acid, can be separated according to one of the following three methods.

[2] = Solubility / phase separation observation in water and aqueous salt solutions; assay type: physicochemical
Protocol: If there are long chain fatty acids present in the starting material, these fatty acids are precipitated as the ammonium salt, along with the long chain amino acid. In the production of 11-aminoundecanoic acid and dodecanedioic acid from the starting material of castor oil, significant amount of stearic acid is present in the mixed amide derivatives. […] If ammonia or ammonium hydroxide is used as the basic agent to neutralize sulfuric acid, and after more basic agent is added to the mother liquor to a basic pH, alkylamine can only be recovered by extraction. Distillation of the basic solution will remove ammonia instead of alkylamine. […] No phase separation is observed between hexylamine and a solution of ammonium sulfate.

SMILES | Solubility [1] | Solubility ([2]; in a solution of alkali salt) | Solubility ([2]; in a solution of ammonium salt, i.e., ammonium sulfate) | Solubility ([2]; in water)
NCCCCCCCCCCC(=O)O [11-aminoundecanoic acid] | nearly insoluble |  |  | 
O=C(O)CCCCCCCCCCC(=O)O [ammonium salt of dodecanedioic acid, dodecanedioic acid] | soluble and becomes more soluble as temperature increases |  |  | 
CCCCCCN [hexylamine] |  | insoluble | freely soluble | insoluble
